Data: patent US20240209028A1, “CNP COMPOUNDS” (priority 2022, published 2024)
Starred links: 1 amine or outer side, 2 acyl side, 3 side chain; linkers in the order of their positions; H or OH if unused. Positions of bridges follow the written chain, without caps; N, C: chain ends. Residues, ends and D or L forms follow the SMILES beside them. *: point of attachment. C18 diacid = O=C(O)CCCCCCCCCCCCCCCCC(=O)*; γGlu = O=C(O)[C@H](CCC(=O)[*:2])N[*:1]; AEEA = NCCOCCOCC(=O)O

System: mouse metatarsal bones
Test: Mouse metatarsal bone dissection and culture (ex vivo bone growth)
Assay type: cell-based, mouse (NMRI)
Settings: 100 nM, n=8
Experimental: The purpose of this study was to evaluate bone growth after administration of CNP compounds in an ex vivo mouse model.
Procedure: One-day old mouse pups (NMRI, Javier Labs France) were euthanised prior to dissection. All applicable international and internal Novo Nordisk guidelines for care and use of animals were followed. The three middle metatarsal bones were dissected out from each hind paw. The dissected bones were placed in 24-well cell culture plates and cultured in 400 μl a-Minimum Essential Media supplemented with 0.2% BSA, 1% Pen/Strep at 37° C. and 5% CO2. The bones from all animals were randomised into a control group and six CNP compound-treated groups (100 nM; n=8). The medium was changed every 2-3 days. All compounds were formulated according to the principles described in General Methods of Preparation—Method G. Compounds 9435 and 9483 were formulated in A) 5 mM sodium acetate, 250 mM glycerol, pH 4.0 while compounds 9384, 9407, 9480 and 9482 were formulated in B) 8 mM sodium phosphate, 250 mM glycerol, pH 7.4.
Digital pictures were captured on day 0, 4, 7, 11, and 14 using a digital camera attached to a Nikon microscope. The length of each metatarsal bone was measured using ImageJ software and increase in bone length was expressed as percentage change from the length measured at the day of dissection (Mean (SD)).
In Table 27, metatarsal bones were isolated from mice and cultured for up to 14 days. Length was measured every 3-4 days throughout the study and expressed as percentage change from day 0 (Mean (SD)). Statistically significant differences are indicated compared to control group (two-way ANOVA).

Compound	Increase in bone length, mean (%) change from day 0 (day 4 in culture) [%]	Increase in bone length, mean (%) change from day 0 (day 7 in culture) [%]	Increase in bone length, mean (%) change from day 0 (day 11 in culture) [%]	Increase in bone length, mean (%) change from day 0 (day 14 in culture) [%]
CC[C@H](C)[C@@H]1NC(=O)[C@H](CCCNC(=N)N)NC(=O)[C@H](CC(=O)O)NC(=O)[C@H](CC(C)C)NC(=O)[C@@H]2CCCN2C(=O)[C@H](CC(C)C)NC(=O)CNC(=O)[C@H](Cc2ccccc2)NC(=O)[C@@H](NC(=O)CNC(=O)[C@H](CCC(N)=O)NC(=O)[C@H](CO)NC(=O)CNC(=O)CNC(=O)[C@H](CCCCN)NC(=O)[C@H](CCCCN)NC(=O)[C@H](CCC(N)=O)NC(=O)[C@H](C)NC(=O)CNC(=O)[C@H](CCCCN)NC(=O)[C@H](Cc2ccc(O)cc2)NC(=O)COCCOCCNC(=O)COCCOCCNC(=O)COCCOCCNC(=O)COCCOCCNC(=O)CC[C@H](NC(=O)CC[C@H](NC(=O)CCCCCCCCCCCCCCCCC(=O)O)C(=O)O)C(=O)O)CSSC[C@@H](C(=O)O)NC(=O)CNC(=O)[C@H](CC(C)C)NC(=O)CNC(=O)[C@H](CO)NC(=O)[C@H](CC(C)C)NC(=O)[C@H](CO)NC(=O)CNC1=O [compound 9435] ({C18 diacid-γGlu-γGlu-AEEA-AEEA-AEEA-AEEA}-YKGAQKKGGSQGCFGLPLDRIGSLSGLGC-OH; disulfide 13-29; C-terminus assumed)	36.2	47.3	53.9	59.2
CC[C@H](C)[C@@H]1NC(=O)[C@H](CCCNC(=N)N)NC(=O)[C@H](CC(=O)O)NC(=O)[C@H](CC(C)C)NC(=O)[C@@H]2CCCN2C(=O)[C@H](CC(C)C)NC(=O)CNC(=O)[C@H](Cc2ccccc2)NC(=O)[C@@H](NC(=O)CNC(=O)[C@H](CCC(N)=O)NC(=O)[C@H](CO)NC(=O)[C@H](CC(C)C)NC(=O)CNC(=O)[C@H](CCCCN)NC(=O)[C@H](CCCCN)NC(=O)[C@H](CCC(N)=O)NC(=O)[C@H](C)NC(=O)CNC(=O)[C@H](CCCCN)NC(=O)[C@H](Cc2ccc(O)cc2)NC(=O)COCCOCCNC(=O)COCCOCCNC(=O)COCCOCCNC(=O)COCCOCCNC(=O)CC[C@H](NC(=O)CC[C@H](NC(=O)CC[C@H](NC(=O)CCCCCCCCCCCCCCCCC(=O)O)C(=O)O)C(=O)O)C(=O)O)CSSC[C@@H](C(=O)O)NC(=O)CNC(=O)[C@H](CC(C)C)NC(=O)CNC(=O)[C@H](CO)NC(=O)[C@H](CC(C)C)NC(=O)[C@H](CO)NC(=O)CNC1=O [compound 9480] ({C18 diacid-γGlu-γGlu-γGlu-AEEA-AEEA-AEEA-AEEA}-YKGAQKKGLSQGCFGLPLDRIGSLSGLGC-OH; disulfide 13-29)	33.1	43.9	49.2	52.1
CC[C@H](C)[C@@H]1NC(=O)[C@H](CCCNC(=N)N)NC(=O)[C@H](CC(=O)O)NC(=O)[C@H](CC(C)C)NC(=O)[C@@H]2CCCN2C(=O)[C@H](CC(C)C)NC(=O)CNC(=O)[C@H](Cc2ccccc2)NC(=O)[C@@H](NC(=O)CNC(=O)[C@H](CO)NC(=O)[C@H](CO)NC(=O)[C@H](CC(C)C)NC(=O)CNC(=O)[C@H](CCCCN)NC(=O)[C@H](CCCCN)NC(=O)[C@H](CCC(N)=O)NC(=O)[C@H](C)NC(=O)CNC(=O)[C@H](CCCCN)NC(=O)[C@H](Cc2ccc(O)cc2)NC(=O)[C@H](CCCCN)NC(=O)[C@H](CCCNC(=N)N)NC(=O)[C@H](C)NC(=O)[C@H](CCC(N)=O)NC(=O)[C@@H]2CCCN2C(=O)[C@H](Cc2c[nH]cn2)NC(=O)[C@H](CCC(=O)O)NC(=O)[C@H](CCC(N)=O)NC(=O)CC[C@H](NC(=O)CC[C@H](NC(=O)CC[C@H](NC(=O)CC[C@H](NC(=O)CC[C@H](NC(=O)CCCCCCCCCCCCCCCCC(=O)O)C(=O)O)C(=O)O)C(=O)O)C(=O)O)C(=O)O)CSSC[C@@H](C(=O)O)NC(=O)CNC(=O)[C@H](CC(C)C)NC(=O)CNC(=O)[C@H](CO)NC(=O)[C@H](CC(C)C)NC(=O)[C@H](CO)NC(=O)CNC1=O [compound 9482] ({C18 diacid-γGlu-γGlu-γGlu-γGlu-γGlu}-QEHPQARKYKGAQKKGLSSGCFGLPLDRIGSLSGLGC-OH; disulfide 21-37)	37.7	47.1	54.4	57.5
CC[C@H](C)[C@@H]1NC(=O)[C@H](CCCNC(=N)N)NC(=O)[C@H](CCC(=O)O)NC(=O)[C@H](CC(C)C)NC(=O)[C@@H]2CCCN2C(=O)[C@H](CC(C)C)NC(=O)CNC(=O)[C@H](Cc2ccccc2)NC(=O)[C@@H](NC(=O)CNC(=O)[C@H](CO)NC(=O)[C@H](CO)NC(=O)[C@H](CC(C)C)NC(=O)CNC(=O)[C@H](CCCCN)NC(=O)[C@H](CCCCN)NC(=O)[C@H](CCC(N)=O)NC(=O)[C@H](C)NC(=O)CNC(=O)[C@H](CCCCN)NC(=O)[C@H](Cc2ccc(O)cc2)NC(=O)[C@H](CCCCN)NC(=O)[C@H](CCCNC(=N)N)NC(=O)[C@H](C)NC(=O)[C@H](CCC(N)=O)NC(=O)[C@@H]2CCCN2C(=O)[C@H](Cc2c[nH]cn2)NC(=O)[C@H](CCC(=O)O)NC(=O)[C@H](CCC(N)=O)NC(=O)CC[C@H](NC(=O)CC[C@H](NC(=O)CC[C@H](NC(=O)CC[C@H](NC(=O)CCCCCCCCCCCCCCCCC(=O)O)C(=O)O)C(=O)O)C(=O)O)C(=O)O)CSSC[C@@H](C(=O)O)NC(=O)CNC(=O)[C@H](CC(C)C)NC(=O)CNC(=O)[C@H](CO)NC(=O)[C@H](CC(C)C)NC(=O)[C@H](CO)NC(=O)CNC1=O [compound 9483] ({C18 diacid-γGlu-γGlu-γGlu-γGlu}-QEHPQARKYKGAQKKGLSSGCFGLPLERIGSLSGLGC-OH; disulfide 21-37)	30.2	39.5	49.7	51.5
